Laboratory results as given in article PMC6767236, “Selective Cannabinoid 2 Receptor Agonists as Potential Therapeutic Drugs for the Treatment of Endotoxin-Induced Uveitis” (Molecules, 2019).

How the values were obtained:
[1] = test system: adhesion of adoptively-transferred leukocytes in the iridial microcirculation; test: Adoptive transfer of WT leukocytes into neutrophil-depleted CB2R-/- mice with EIU; type: in vivo; details: neutrophil-depleted CB2R-/- recipients with EIU, topical
Method: (§1) For adoptive transfer experiments, calcein-AM-labelled leukocytes were visualized by fluorescence (495 nm excitation) in the iridial microcirculation using a Leica DMLM epifluorescence microscope (Leica, Wetzlar, Germany) equipped with a mercury-arc light source (LEG EBQ 100, Carl Zeiss, Jena, Germany) and captured by a CCD video camera (SIT 68, DAGE MTI, Michigan, IN, USA). Videos were recorded using WinDV Capture software (Mourek, Prague, Czech Republic) and stored on an external hard drive.
(§2) During IVM animals were placed on a heating pad in a stereotactic frame, and Tear-Gel® (Novartis Pharmaceuticals Canada Inc., Dorval, QC, Canada) was applied to their cornea. The iris was divided into four equal quadrants by drawing two superficial lines on the cornea, lengthwise and widthwise. […] Two to four videos of each quadrant were recorded for 30 s each. Videos were analyzed off-line without knowledge of the treatment groups. […] Using ImageJ software (National Institute of Health, Bethesda, MD, USA) the number of adherent leukocytes within each vessel segment was calculated by measuring the diameter and length of vessel segment studied, assuming a cylindrical geometry of blood vessels. Adherent leukocytes were expressed as number of cells per mm^2 of endothelial surface. […] The number of rolling leukocytes was counted for 30 s and used to calculate the number of rolling leukocytes per min. […]

[2] = test system: adhesion of adoptively-transferred leukocytes in the iridial microcirculation; test: Adoptive transfer of WT leukocytes into neutrophil-depleted WT mice with EIU; type: in vivo, mouse; details: topical 1.5% w/v, 6 h post-EIU
Method: as §1, §2

[3] = design: method as in earlier work; details: * previously published, cited from earlier work
[4] = Plasma protein binding (equilibrium dialysis), human plasma; type: in vitro ADME; details: pH 7.4, read-out: Plasma Protein Binding: FREE Fraction human
Method: Pooled and frozen plasma from selected species were obtained from commercial suppliers […]
(human […] and mouse […]3-C57; BioreclamationIV, NY, USA). Teflon […]
equilibrium dialysis plates (96-well, 150 μL, half-cell capacity) and cellulose membranes (12–14 kDa molecular weight cut-off) were purchased from HT-Dialysis (Gales Ferry, Connecticut). Both biological matrix and phosphate buffer pH were adjusted to 7.4 on the day of the experiment. The reference substance was diazepam.
The determination of unbound compound was performed using a 96-well format equilibrium dialysis device with a molecular weight cut-off membrane of 12 to 14 kDa. […]
At equilibrium, the unbound drug concentration in the biological matrix compartment of the equilibrium dialysis apparatus is the same as the concentration of the compound in the buffer compartment. Thus, the percent unbound fraction was be calculated by determining the compound concentrations in the buffer and matrix compartments after dialysis as follows: % fraction unbound = 100 × buffer concentration after dialysis/matrix concentration after dialysis. […]
P-glycoprotein (permeability-glycoprotein (P-gp), also known as multidrug resistance protein 1) is the most studied and best characterized drug transporter. […] The effect of P-gp was measured by expressing the efflux ratio of the unidirectional A > B and B > A Papp values. […]

Structure (SMILES): CC(C)(C)c1nc(N2CC[C@H](O)C2)c2nnn(Cc3nnnn3C3CC3)c2n1 [RO6871304, (3S)-1-{5-tert-butyl-3-[(1-cyclopropyl-1H-tetrazol-5-yl)methyl]-3H-[1,2, 3]triazolo[4,5-d]pyrimidin-7-yl}pyrrolidin-3-ol]
- adhesion of adoptively-transferred leukocytes [1]: did not affect adhesion of adoptively-transferred leukocytes
- decrease of LPS-induced adhesion of adoptively-transferred leukocytes compared to vehicle [2]: 64 fold
- Thermodynamic Solubility in FaSSIF (pH 6.5) ([3]; FaSSIF pH 6.5): 80 μg/mL
- Thermodynamic Solubility in FeSSIF (pH 5.5) ([3]; FeSSIF pH 5.5): 273 μg/mL
- Thermodynamic Solubility in Aqueous Buffer (pH 6.5) ([3]; aqueous phosphate buffer pH 6.5): 56 μg/mL
- fraction unbound at 5 h, 1000 nM [4]: 0.13
